Converted amounts (≈) assume the structure as drawn.
Columns and labels:
Microsporum gypseum = test: Antidermatophyte activity, plaque growth inhibition; type: cell-based, Microsporum gypseum CBS 130,948; conditions: Nannizzia gypsea; 100 μg/mL, SDA; read-out: % Inhibition Growth M. gypseum
Protocol: (§1) The dermatophytes used in this study were Epidermophyton floccosum var. floccosum (Netherlands) CBS 358.93 strain, Trichophyton tonsurans (Netherlands) CBS 483.76 strain, Trichophyton mentagrophytes (Netherlands) CBS 160.66 strain, Microsporum canis (Iran) CBS 131,110 strain, and Microsporum gypseum (Iran) CBS 130,948 strain. All dermatophytes were maintained at 4 °C as agar slants on SDA. Candida albicans (ATCC 10231) was maintained at 4 °C on SDA plate.
(§2) The in vitro antifungal activity against the five selected dermatophytes was evaluated, as previously described, using the plaque growth inhibition method. All compounds were evaluated at the final concentration of 100 µg/mL. The percentages of growth inhibition according to Equation (5) were calculated as the average of three different experiments. I = [(C − T)/C] × 100%,(5) where I is the percentage value of growth inhibition, C is the measure of the diameter of the control circular mycelial inoculum (mm) and T is the extended diameter of the treated mycelial inoculum (mm).
(§3) All synthesized benzothiazole derivatives were evaluated to evaluate their in vitro antifungal activity against the five pathogenic dermatophytes that cause the most common dermatomycoses: Microsporum gypseum, Microsporum canis, Trichophyton mentagrophytes, Trichophyton tonsurans and Epidermophyton floccosum. All compounds were tested at a concentration of 100 µg/mL in DMSO, to evaluate the ability to inhibit the growth of dermatophyte cultures in Sabouraud Dextrose Agar (SDA). Briefly, room temperature incubation was performed and dermatophyte inhibition assessed by measuring the colony diameter at each disc for 7 days. The results are shown in Table 3 and were determined as the average of three different experiments.

[1] = system: Candida albicans (ATCC 10231); test: Anti-Candida albicans activity, broth microdilution MIC; type: cell-based; conditions: for MIC: Candida albicans, ATCC10231, 24 h of incubation; for activity against Candida albicans: after 24 h
Protocol: as §1
The suspension of Candida albicans consists of the dispersion of an aliquot in 5 mL of sterilized water. The compounds and fluconazole, used as a positive control, were solubilized in DMSO (12.80 mg/mL) as stock solutions. Minimum inhibitory concentration (MIC) was performed by the broth microdilution method according to the approved standard M27-A3, 2008 [NCCLS] of the Clinical and Laboratory Standards Institute/National Committee for Clinical Laboratory Standards (CLSI/NCCLS), as described previously.
Candida is a strain of fungi known to transmit infections to different parts of the human body, including the skin [43], which is why the synthesized compounds have also been tested against Candida Albicans (ATCC 10231). For each of them the minimum inhibitory concentration (MIC) was determined by the broth microdilution method using RPMI 1640 + MOPS as culture medium. […] Fluconazole was used as a positive control drug. […] Similarly to the results observed on dermatophytes, therefore, the unsubstituted compounds in position 6 of benzimidazole gave activity on yeasts, except for compound 8a.

[2] = Ferric Reducing Antioxidant Power assay (FRAP); conditions: 593 nm
Protocol: The FRAP assay is a widely used method based on a colorimetric reaction linked to a redox and on the use of antioxidants as reducing agents.
The test evaluates the capacity of a sample to reduce ferric to ferrous ions in the presence of TPTZ (2,4,6-tripyridyl-s-triazine). The reaction mixture consists of 0.1 M acetate buffer pH 3.6, 10 mmol/L TPTZ in 40 mmol/HCl, and 20 mmol/L ferric chloride in the ratio 10/1/1 (v:v:v) as described by Benzie et al.. A total of 1.9 mL of reagent was added to 0.1 mL of suitably diluted sample or solvent. The absorbance values were measured using the UV-VIS spectrophotometer at 593 nm and expressed as µmol TE/g compound.

dermatophytes [3] = test: Antidermatophyte activity, all tested dermatophytes together; type: cell-based; conditions: read-out: percentages of inhibition of growth, all five dermatophytes
Protocol: as §2, §3

dermatophytes [4] = system: dermatophytes; design: method as in PMID 32967192; conditions: cited from earlier work

MIC [1] | SMILES | inhibition at 100 µg/mL (Microsporum gypseum) | activity against Candida albicans [1] | FRAP [2] | inhibition at 100 µg/mL (dermatophytes [3]) | IC50 towards the tested dermatophytes (dermatophytes [4])
32 µg/mL (≈ 159 µM) | c1coc(-c2nc3ccccc3s2)c1 [Compound 9a, 2-(Furan-2-Yl)benzothiazole] | 74.78 ± 0.59% | showed activity against Candida albicans after 24 h | 72.34 ± 3.42 μmolTE/g | 50 to 75% | –
64 µg/mL (≈ 294 µM) | c1csc(-c2nc3ccccc3s2)c1 [Compound 10a, 2-(Thiophen-2-Yl)benzothiazole] | 70.4 ± 0.77% | showed activity against Candida albicans after 24 h | 143.13 ± 3.84 μmolTE/g | 50 to 75% | –
– | NS(=O)(=O)c1ccc2nc(-c3cccs3)sc2c1 [Compound 10c, 2-(Thiophen-2-Yl)benzothiazole-6-Sulfonamide] | 12.36 ± 0.05% | – | 60.90 ± 1.87 μmolTE/g | – | –
– | c1c[nH]c(-c2nc3ccccc3s2)c1 [Compound 8a, 2-(1H-Pyrrol-2-Yl)benzothiazole] | 50 ± 1.34% | – | 329.85 ± 0.94 μmolTE/g | – | –
– | c1c[nH]c(-c2nc3ccccc3[nH]2)c1 [Lead 10, reference compound] | 99.1 ± 1.33% | – | 1085.57 ± 0.88 μmolTE/g | – | lower than 2 µg/mL
